Experiment [1] relates to Galendromus occidentalis. As to the kind of experiment: Toxicity against Metaseiulus occidentalis adults in bean leaf disk infested with two-spotted spider mites assessed as average number of eggs laid (fecundity)at 0.1167 g AI/L treated using worst-case laboratory exposure procedure measured after 72 hr (reference value: 2.23/day). Format: functional.
In experiment [2] the test system is Galendromus occidentalis. As to the kind of experiment: Toxicity against Metaseiulus occidentalis adults in bean leaf disk infested with two-spotted spider mites assessed as corrected mortality at 0.1167/128 g AI/L treated using worst-case laboratory exposure procedure measured after 72 hr. Format: functional.
Experiment [3] concerns Galendromus occidentalis. As to the kind of experiment: Toxicity against Metaseiulus occidentalis adults in bean leaf disk infested with two-spotted spider mites assessed as corrected mortality at 0.1167/8 g AI/L treated using worst-case laboratory exposure procedure measured after 72 hr. Format: functional.
The test system of experiment [4] is Galendromus occidentalis. As to the kind of experiment: Ovicidal activity against Metaseiulus occidentalis eggs in bean leaf disk infested with two-spotted spider mites assessed as corrected cumulative mortality at 700 g/kg WP formulation treated using worst-case laboratory exposure procedure measured after 144 hr (reference value: 0.7%). Format: functional.
The subject of experiment [5] is Galendromus occidentalis. As to the kind of experiment: Toxicity against Metaseiulus occidentalis adults in bean leaf disk infested with two-spotted spider mites assessed as repellency at 0.1167 g AI/L treated using worst-case laboratory exposure procedure measured after 72 hr (reference value: 16.1%). Format: functional.
The test system of experiment [6] is Galendromus occidentalis. As to the kind of experiment: Toxicity against Metaseiulus occidentalis adults in bean leaf disk infested with two-spotted spider mites assessed as corrected mortality at 0.1167/46 g AI/L treated using worst-case laboratory exposure procedure measured after 72 hr. Format: functional.
In experiment [7] the test system is Galendromus occidentalis. As to the kind of experiment: Toxicity against Metaseiulus occidentalis adults in bean leaf disk infested with two-spotted spider mites assessed as average number of eggs laid (fecundity) at 0.1167 g AI/L treated using worst-case laboratory exposure procedure measured after 24 hr (reference value: 2.11/day). Format: functional.
Experiment [8] concerns Galendromus occidentalis. As to the kind of experiment: Toxicity against Metaseiulus occidentalis adults in bean leaf disk infested with two-spotted spider mites assessed as mortality treated using worst-case laboratory exposure procedure measured after 72 hr. Format: functional.
For experiment [9], the system named is Galendromus occidentalis. As to the kind of experiment: Toxicity against Metaseiulus occidentalis adults in bean leaf disk infested with two-spotted spider mites assessed as repellency at 0.1167 g AI/L treated using worst-case laboratory exposure procedure measured after 48 hr (reference value: 13.6%). In kind it is functional.
Experiment [10] has as its system Galendromus occidentalis. As to the kind of experiment: Toxicity against Metaseiulus occidentalis adults in bean leaf disk infested with two-spotted spider mites assessed as average number of eggs laid (fecundity) at 0.1167 g AI/L treated using worst-case laboratory exposure procedure measured after 48 hr (reference value: 2.30/day). Format: functional.
For experiment [11], the system named is Galendromus occidentalis. As to the kind of experiment: Toxicity against Metaseiulus occidentalis adults in bean leaf disk infested with two-spotted spider mites assessed as corrected mortality at 4x0.1167 g AI/L treated using worst-case laboratory exposure procedure measured after 72 hr. Format: functional.
In experiment [12] the test system is Galendromus occidentalis. As to the kind of experiment: Toxicity against Metaseiulus occidentalis adults in bean leaf disk infested with two-spotted spider mites assessed as repellency at 0.1167 g AI/L treated using worst-case laboratory exposure procedure measured after 24 hr (reference value: 3.6%). Format: functional.
The test system of experiment [13] is Galendromus occidentalis. As to the kind of experiment: Toxicity against Metaseiulus occidentalis adults in bean leaf disk infested with two-spotted spider mites assessed as corrected mortality at 0.1167 g AI/L treated using worst-case laboratory exposure procedure measured after 72 hr. In kind it is functional.
The subject of experiment [14] is Galendromus occidentalis. As to the kind of experiment: Toxicity against Metaseiulus occidentalis adults in bean leaf disk infested with two-spotted spider mites assessed as corrected mortality at 2x0.1167 g AI/L treated using worst-case laboratory exposure procedure measured after 72 hr. In kind it is functional.
Experiment [15] concerns Galendromus occidentalis. As to the kind of experiment: Toxicity against Metaseiulus occidentalis adults in bean leaf disk infested with two-spotted spider mites assessed as average number of eggs laid (fecundity) at 0.1600 g AI/L treated using worst-case laboratory exposure procedure measured after 24 hr (reference value: 2.11/day). Format: functional.
A further experiment has as its system Amblyseius andersoni. As to the kind of experiment: Toxicity against Amblyseius andersoni in hop fields assessed as mortality. Format: functional.
For experiment [16], the system named is Galendromus occidentalis. As to the kind of experiment: Toxicity against Metaseiulus occidentalis adults in bean leaf disk infested with two-spotted spider mites assessed as repellency at 0.1600 g AI/L treated using worst-case laboratory exposure procedure measured after 24 hr (reference value: 3.6%). Format: functional.
In experiment [17] the test system is Galendromus occidentalis. As to the kind of experiment: Toxicity against Metaseiulus occidentalis adults in bean leaf disk infested with two-spotted spider mites assessed as corrected mortality at 0.1600/16 g AI/L treated using worst-case laboratory exposure procedure measured after 72 hr. Format: functional.
Experiment [18] relates to Galendromus occidentalis. As to the kind of experiment: Toxicity against Metaseiulus occidentalis adults in bean leaf disk infested with two-spotted spider mites assessed as average number of eggs laid (fecundity) at 0.1600 g AI/L treated using worst-case laboratory exposure procedure measured after 72 hr (reference value: 2.23/day). In kind it is functional.
Experiment [19] relates to Galendromus occidentalis. As to the kind of experiment: Toxicity against Metaseiulus occidentalis adults in bean leaf disk infested with two-spotted spider mites assessed as corrected mortality at 0.1600 g AI/L treated using worst-case laboratory exposure procedure measured after 72 hr. Format: functional.
Experiment [20] has as its system Galendromus occidentalis. As to the kind of experiment: Toxicity against Metaseiulus occidentalis in hop fields assessed as mortality. Format: functional.
A further experiment has as its system Neoseiulus fallacis. As to the kind of experiment: Toxicity against Neoseiulus fallacis in hop fields assessed as mortality. Format: functional, Garman.
In experiment [21] the test system is Galendromus occidentalis. As to the kind of experiment: Toxicity against Metaseiulus occidentalis adults in bean leaf disk infested with two-spotted spider mites assessed as corrected mortality at 0.1600/2 g AI/L treated using worst-case laboratory exposure procedure measured after 72 hr. In kind it is functional.
For experiment [22], the system named is Galendromus occidentalis. As to the kind of experiment: Toxicity against Metaseiulus occidentalis adults in bean leaf disk infested with two-spotted spider mites assessed as average number of eggs laid (fecundity) at 0.1600 g AI/L treated using worst-case laboratory exposure procedure measured after 48 hr (reference value: 2.30/day). In kind it is functional.

Experiment [23] deals with Galendromus occidentalis. As to the kind of experiment: Toxicity against Metaseiulus occidentalis adults in bean leaf disk infested with two-spotted spider mites assessed as repellency at 0.1600 g AI/L treated using worst-case laboratory exposure procedure measured after 72 hr (reference value: 16.1%). In kind it is functional.
For experiment [24], the system named is Galendromus occidentalis. As to the kind of experiment: Toxicity against Metaseiulus occidentalis adults in bean leaf disk infested with two-spotted spider mites assessed as corrected mortality at 0.1600/8 g AI/L treated using worst-case laboratory exposure procedure measured after 72 hr. Format: functional.
Experiment [25] deals with Galendromus occidentalis. As to the kind of experiment: Ovicidal activity against Metaseiulus occidentalis eggs in bean leaf disk infested with two-spotted spider mites assessed as corrected cumulative mortality at 240 g/L SC formulation treated using worst-case laboratory exposure procedure measured after 144 hr (reference value: 0.7%). Format: functional.
The subject of experiment [26] is Galendromus occidentalis. As to the kind of experiment: Toxicity against Metaseiulus occidentalis adults in bean leaf disk infested with two-spotted spider mites assessed as repellency at 0.1600 g AI/L treated using worst-case laboratory exposure procedure measured after 48 hr (reference value: 13.6%). In kind it is functional.
The subject of experiment [27] is Galendromus occidentalis. As to the kind of experiment: Toxicity against Metaseiulus occidentalis adults in bean leaf disk infested with two-spotted spider mites assessed as corrected mortality at 0.1600/32 g AI/L treated using worst-case laboratory exposure procedure measured after 72 hr. Format: functional.

As usually defined, the mortality is the percentage killed.

Regarding `C/C(=N\C#N)N(C)Cc1ccc(Cl)nc1` [ACETAMIPRID], the figures for the Activity in the experiment on Galendromus occidentalis [1], in the experiment with Galendromus occidentalis [7] and in the experiment on Galendromus occidentalis [10] were 0 day⁻¹, 1.3 day⁻¹ and 0.13 day⁻¹, respectively. Further, the mortality with Galendromus occidentalis [2] amounted to 2.4%; in the experiment on Galendromus occidentalis [3], 56.9%; with Galendromus occidentalis [4] it was 2%; in the experiment with Galendromus occidentalis [6], 42.4%; with Galendromus occidentalis [11], 83.1%; in the experiment with Galendromus occidentalis [13], 63.7%. Besides, the mortality in the experiment on Galendromus occidentalis [14] is listed as 64.2%. Also, the Repellency in the experiment with Galendromus occidentalis [5] is listed as 50%; with Galendromus occidentalis [9] it was 41%; in the experiment with Galendromus occidentalis [12], 16%. Further, the LC50 in the experiment with Galendromus occidentalis [8] was 0.021 gAi/L.

In the case of `O=[N+]([O-])/N=C1\NCCN1Cc1ccc(Cl)nc1` [IMIDACLOPRID], the Activity in the experiment on Galendromus occidentalis [15] stood at 2.05 day⁻¹; in the experiment on Galendromus occidentalis [18], 1.3 day⁻¹; in the experiment with Galendromus occidentalis [22], 1.54 day⁻¹. Also, the mortality with Amblyseius andersoni stood at 35.6%; with Galendromus occidentalis [17], 34.4%; in the experiment on Galendromus occidentalis [19] it was 97.4%; in the experiment with Galendromus occidentalis [20], 100%; in the experiment on Neoseiulus fallacis, 100%; in the experiment with Galendromus occidentalis [21], 84.2%. Moreover, the mortality with Galendromus occidentalis [24] is recorded as 59.4%; with Galendromus occidentalis [27], 16.8%. The Repellency in the experiment with Galendromus occidentalis [16] is on record as 16%; in the experiment with Galendromus occidentalis [23], 53.8%; in the experiment with Galendromus occidentalis [26], 51.9%. Further, the LC50 in the experiment on Galendromus occidentalis [8] is on record as 0.0156 gAi/L. In addition, the mortality at 240000 µg/mL (stock) in the experiment on Galendromus occidentalis [25] turned out to be 2.7%.

For the origin of these results see ChEMBL document CHEMBL3045618, “Effect of seven new orchard pesticides on Galendromus occidentalis in laboratory studies” (2009).
